Test results published in patent US20080014248A1, “Photosensitizer containing indole-3-alkylcarboxylic acid, and kit for photodynamic therapy containing the same” (priority 2006, published 2008).

Key:
[1] = system: G361 human melanoma cell line; assay: G361 cell toxicity experiment (MTT assay), IAA with or without HRP; format: cell-based; conditions: 20 hours, G361 cells, FIG. 1
Method: G361 human melanoma cell line (ATCC, Rockville, Md.) was cultivated in a 5% CO2, 37 °C, 10% fetal bovine serum (FBS), and 50 μg/mL penicillin containing RPMI 1640 culture (WelGene, Daegu, Korea).
The cells cultivated in the medium were divided into 24 wells (4×10^4/well), and was then cultivated in a medium without FBS for 24 hours. Cytotoxic effect was measured using MTT (3,4-dimethylthiazol-2-yl)2,5-diphenyltetrazolium bromide) assay (Kim, D. S., Jeon, S. E., Park, K. C. Cell Signal, 16, 81-8, 2004).
An HRP (1.2 mg/ml, Sigma, St. Louis, Mo.) treated group (indicated by the ‘∘’ in FIG. 1) and a group untreated with HRP (indicated by the ‘▪’ in FIG. 1) were separated, each with a final IAA density between 1 and 500 mM in the culture. After cultivating for 20 hours, 0.5 mg/Ml of MTT was added to the culture and cultivated for 4 more hours. After adding and dissolving 1 ml of dimethylsufoxide solution in the well, the absorption was measured using ELISA reader (TECAN, Salzburg, Austria) at 540 nm. The viability rate for the control group was set at 100%.
(Calculations) Cell viability(%)=(experimental group/control group absorption)×100

[2] = system: Stomach cancer cell line (SNU1, SNU16, SNU601, SNU719), lung cancer cell line (NCI-H157, NCI-H1264), liver cancer cell line (SK-HEP-1); assay: Toxicity experiment of various cell types (MTT assay), IAA/HRP, cancer cells; format: cell-based; conditions: 20 hours, FIG. 2a-2c
Method: (§1) Stomach cancer cell line (SNU1, SNU16, SNU601, SNU719, Korean Cell Bank, Seoul, Korea), and lung cancer cell line (NCI-H157, NCI-H1264, Korea Cell Bank, Seoul, Korea) were cultivated in a 5% CO2, 37 °C, 10% FBS, and 50 μg/mL penicillin containing RPMI 1640 culture (WelGene, Daegu, Korea), and liver cancer cell line (SK-HEP-1, Korean Cell Bank, Seoul, Korea) was cultivated in DMEM culture (WelGene, Daegu, Korea) under the same conditions. Fibroblasts have been used for the separation of the foreskin during phimosiectomy. […]
(§2) The cells cultivated in the medium were divided into 24 wells (4×10^4/well), and were then cultivated in a medium without FBS for 24 hours. Cytotoxic effect was measured using MTT (3,4-dimethylthiazol-2-yl)2,5-diphenyltetrazolium bromide) assay (Kim, D. S., Jeon, S. E., Park, K. C. […]
(§3) An HRP (1.2 mg/ml) treated group and a group untreated with HRP was separated, each with a final IAA concentration between 1 and 1000 mM in the culture. […] After adding and dissolving 1 ml of dimethylsufoxide solution in the well, the absorption was measured using ELISA reader at 540 nm. […]

normal human fibroblasts [3] = assay: Toxicity experiment of various cell types (MTT assay), IAA/HRP, fibroblasts; format: cell-based; conditions: 20 hours, FIG. 2a-2c
Method: as §1, §2, §3

[4] = system: G361 human melanoma cell line, mouse melanoma cell line B16, liver cancer cell (SK-HEP-1); assay: Toxicity experiment (MTT assay), IAA with UVB irradiation, cancer cells; format: cell-based; conditions: 1 to 1000 mM, 20 hours, FIG. 3
Method: (§4) (Cell Culture) After cultivating G361 human melanoma cell line (ATCC, Rockville, Md.) in a 5% CO2, 37 °C, 10% fetal bovine serum (FBS), 50 μg/mL streptomyocin, and 50 μg/mL penicillin containing DMEM culture, mouse melanoma cell line B16 (Korea Cell Bank, Seoul, Korea) liver cancer cell (SK-HEP-1, Korea Cell Bank, Seoul, Korea) was cultivated in the DMEM culture under the same conditions. Fibroblasts have been used for the separation of the foreskin during phimosiectomy. Following the skin biopsy method of Rheinward and Green (Rheinwald J G, Green H. Serial cultivation of strains of human epidermal keratinocytes; the formation of keratinizing colonies from single cells. Cell 1975;6: 331-43.), the […] were cultivated in a 10% fetal bovine serum (FBS), 50 μg/mL of streptomyocin, and 50 μg/mL of penicillin containing DMEM culture.
(§5) The cells cultivated in the medium were divided into 24 wells (4×10^4/well), and was then cultivated in a medium without FBS for 24 hours. Cytotoxic effect was measured using MTT (3,4-dimethylthiazol-2-yl)2,5-diphenyltetrazolium bromide) assay. An ICA group treated with UVB (100 mJ/cm^2) and a group with ICA alone were separated, each with a final IAA concentration between 1 and 1000 mM in the culture. […] After adding and dissolving 1 ml of dimethylsufoxide solution in the well, the absorption was measured using ELISA reader at 540 nm. […]

normal human fibroblasts [5] = assay: Toxicity experiment (MTT assay), IAA with UVB irradiation, fibroblasts; format: cell-based; conditions: 1 to 1000 mM, 20 hours, FIG. 3
Method: as §4, §5

[6] = Photo-activation of IAA by different wavelength of light, free radical formation by DCF (dichlorofluorescein) assay; format: physicochemical; conditions: 1 mM IAA, HL-2000-HP irradiator, FIG. 4
Method: In order to study the effects of different wavelength of light, IAA was irradiated with HL-2000-HP (Ocean Optics, Dunedin, Fla., USA). Free radical formation was measured by DCF (dichlorofluorescein) assay. In order to induce activity of DCFH-DA, DCFH-DA was dissolved to a 1 mM concentration in 100% ethanol. 350 ul of the solution was then added to 1.75 ml of 0.01 N NaOH and allowed reaction for 5, 10, and 20 minutes. The activated DCFH-DA solution was then prepared by mixing 17.9 ml of 25 mM natrium-phosophoric acid buffer solution (pH 7.2). 1 mM of IAA was then administered to the activated DCFH-DA, and using HL-2000HP light irradiator, various wavelength filters (380, 400, 480, 520, 590, 640 nm) (Thorlabs, Inc., Long Beach, Calif., USA) were used to observe any photoactivation of IAA using each wavelength. Absorption was measured using ELISA reader at 490 nm.

[7] = system: Human lung cancer cells (NCI-H1264 cell) tumor; assay: Treatment of cancer by combination of IAA and IPL in nude mouse (Hematoxylin & Eosin stain, TUNEL assay); format: in vivo; conditions: IAA 50 mg/kg intravenous, 4 and 7 days after cancer cell injection, IPL 20 J/cm2 thirty minutes later, biopsy at twelve days, FIG. 6
From the text: Intense pulse light (IPL) flash lamp by Eclipse was used for visible light irradiation. 20 Irradiation of 20 J/cm^2 intensity was used with a IPL apparatus able to irradiate between 515 nm to 1200 nm. After applying transmission gel (PROGEL DA-YO Medical, Seoul, Korea) to areas of tumor formation each region was irradiated twice using IPL. Human lung cancer cells (NCI-[…] cell, 1×10^6) were subcutaneously injected into nude mouse (Charles River Lab. Wilmington, Mass./male, 6 weeks old, weight 22-25 g). […] 4 and 7 days after cancer cell injection, these mice were injected with IAA (50 mg/kg). Thirty minutes after intravenous injection of IAA, mice were irradiated with IPL (20 J/cm2). Twelve days after cancer cell injection, biopsy was done and tunnel stain was also performed. […] Experimental IAA (10 mg/ml in 50 mM NaHCO/2% v/v ethanol/water, pH 7) was prepared. A control group of mice with tumor mass formation and an experimental group of mice injected with IAA (pH 7, 50 mg/kg) were separated. The injected group was again separated into two groups, one group treated with IAA after 4 days of cancer cell injection and the other after 7 days. Thirty minutes after intravenous injection of IAA, mice were irradiated with IPL (20 J/cm2). A TUNEL (Chemicon, Temecula, Calif.) assay kit was used for the present experiment. […]

NCI-H1264 cell = assay: Prevention of cancer by combining IAA and IPL (treatment before appearance of tumor mass, biopsy); format: in vivo, nude mouse; conditions: IAA and IPL treatment one, three and five days after NCI-H1264 cell injection, biopsy ten days after injection, FIG. 7
Method: It was observed that the combination of IAA and IPL could induce cancer cell necrosis. However, prevention of histologic or distant metastasis is more important in the treatment of cancer. In order to study the prevention effect, IAA and IPL treatment was performed after cancer cell injection but before the appearance of tumor mass. One, three, and five days after NCI-[…] cell injection, IAA and IPL treatment was performed. Ten days after cancer cell injection, biopsy was done. […] Thus, it can be said that IAA and IPL treatment was effective in the prevention of distant metastasis.

- activation of IAA by light (free radical formation, DCF assay) ([6]; 480 nm (blue) filter): particularly effective
- activation of IAA by light (free radical formation, DCF assay) ([6]; 520 (green) filter): particularly effective
Structure (SMILES): O=C(O)Cc1c[nH]c2ccccc12 [IAA, Indole-3-acetic acid]
- cytotoxic effects (cell viability, MTT) ([1]; IAA alone (no HRP), IAA 1 to 500 mM): no signs of cytotoxic effects
- cytotoxic effects (cell viability, MTT) ([1]; IAA and HRP (1.2 mg/ml), IAA density of at least 100 mM): definite cytotoxic effects
- toxicity (cell viability, MTT) ([2]; IAA administered with HRP (1.2 mg/ml)): toxic to most of the cancer cells
- toxicity (cell viability, MTT) ([2]; IAA alone, 1 to 1000 mM): not toxic to either normal cells or cancer cells
- toxicity (cell viability, MTT) (normal human fibroblasts [3]; IAA administered with HRP (1.2 mg/ml), normal human fibroblasts): not toxic to normal human fibroblasts
- toxicity (cell viability, MTT) (normal human fibroblasts [3]; IAA alone, 1 to 1000 mM, normal cells (fibroblasts)): not toxic to either normal cells or cancer cells
- toxicity (cell viability, MTT) ([4]; IAA alone): not toxic to either normal cells or cancer cells
- toxicity (cell viability, MTT) ([4]; IAA treated with UVB (100 mJ/cm^2)): toxic to most of the cancer cells
- toxicity (cell viability, MTT) (normal human fibroblasts [5]; IAA alone, normal cells (fibroblasts)): not toxic to either normal cells or cancer cells
- toxicity (cell viability, MTT) (normal human fibroblasts [5]; IAA treated with UVB (100 mJ/cm^2), normal human fibroblasts): not toxic to normal human fibroblasts
- tumor necrosis (Hematoxylin & Eosin stain and TUNEL assay) [7]: can induce tumor necrosis
- tumor cell growth (biopsy) (NCI-H1264 cell): not observed in treated tissues
